Assay results taken from patent publication US20160074466A1, “ANGIOTENSINS FOR TREATMENT OF FIBROSIS” (UNIVERSITY OF SOUTHERN CALIFORNIA, priority 2011, published 2016).

Assays:
[1] = Non-fasting whole blood glucose in STZ/high fat diet NASH mice; assay type: in vivo
Source text: (§1) In this example, NASH was induced in 48 male mice by a single subcutaneous injection of streptozotocin (STZ, Sigma-Aldrich, USA) solution 2 days after birth and feeding with high fat diet (HFD, 57 kcal % fat, cat#HFD32, CLEA Japan, Japan) after 4 weeks of age. The mice were randomized into 6 groups of 8 mice at 7 weeks of age according to Table 1 below. Eight male littermates, fed with normal diet without STZ treatment, were used for the Normal group.
(§2) Group 1 (normal) consisted of eight normal mice fed with a normal diet ad libitum without any treatment. Group 2 (vehicle) consisted of eight NASH mice that were subcutaneously administered vehicle at a volume of 5 mL/kg once daily from 7 to 10 weeks of age. Group 3 (TXA127-30 μg) consisted of eight NASH mice that were subcutaneously administered vehicle supplemented with TXA127 at a dose of 30 μg/5 mL/kg once daily from 7 to 10 weeks of age. Group 4 (TXA127-100 μg) consisted of eight NASH mice that were subcutaneously administered vehicle supplemented with TXA127 at a dose of 100 μg/5 mL/kg once daily from 7 to 10 weeks of age. Group 5 (TXA127-300 μg) consisted of eight NASH mice that were subcutaneously administered vehicle supplemented with TXA127 at a dose of 300 μg/5 mL/kg once daily from 7 to 10 weeks of age. Group 6 (TXA127-1,000 μg) consisted of eight NASH mice that were subcutaneously administered vehicle supplemented with TXA127 at a dose of 1,000 μg/5 mL/kg once daily from 7 to 10 weeks of age. Group 7 consisted of eight NASH mice that were orally administered pure water supplemented with Telmisartan at a dose of 15 mg/10 mL/kg once daily from 8 to 10 weeks of age.
(§3) Vehicle (saline) and TXA127 were administered via subcutaneous administration to the mice in a volume of 5 mL/kg body weight. Telmisartan was administered by oral route to the mice in a volume of 10 mL/kg body weight. TXA127 was dissolved in saline, and Telmisartan (MICARDIS®) was purchased from Boehringer Ingelheim GmbH and was dissolved in pure water. TXA127 was administered once daily at the doses of 30, 100, 300 or 1000 μg/kg body weight. Telmisartan was administered once daily at the dose of 15 mg/kg body weight.
(§4) Non-fasting whole blood glucose levels were measured in whole blood samples using G Checker (Sanko Junyaku, Japan). For plasma biochemistry, blood was collected in polypropylene tubes with anticoagulant (Novo-Heparin, Mochida Pharmaceutical, Japan) and centrifuged at 1,000×g for 15 minutes at 4° C. The supernatant was collected and stored at −80° C. until use. The plasma levels of ALT, AST, and ALP were measured by FUJI DRI-CHEM 7000 (Fuji Film, Japan).

[2] = Plasma ALT, AST and ALP levels in STZ/high fat diet NASH mice; assay type: in vivo
Source text: as §1, §2, §3, §4

NASH mice [3] = assay: Liver hydroxyproline content in NASH mice; assay type: in vivo; details: normalized by total protein
Source text: as §1, §2, §3
To quantify liver hydroxyproline content, frozen livers (40-60 mg) were minced and defatted in acetone for 30 minutes at room temperature. After centrifugation, the pellets were air-dried and dissolved in 400 μL of 2N NaOH at 65° C. The liver lysates were autoclaved at 121° C. for 20 minutes. The samples were then acid-hydrolyzed with 400 μL of 6N HCl at 121° C. for 20 minutes, and neutralized with 400 μL of 10 mg/mL activated carbon in 4N NaOH. The neutralized samples were buffered with 2.2 M acetic acid/0.48 M citric acid buffer and centrifuged to obtain the supernatant. In order to construct a standard curve of hydroxyproline, serial dilutions of trans-4-hydroxy-L-proline standard (Sigma, USA) were prepared starting at 16 μg/mL. Five hundred μL of the supernatant and standard were added to 500 μL chloramine T in 10% n-propanol/acetate-citrate buffer and incubated for 25 minutes at room temperature. […] After samples were cooled on ice and centrifuged to collect the supernatant, the optical density of each supernatant and standard was measured at 560 nm and the concentration of liver hydroxyproline was calculated form the hydroxyproline standard curve. Protein concentrations of each supernatant were determined using a BCA protein assay kit (Thermo Scientific, USA). […]

NASH mice [4] = assay: Sirius red staining of liver sections, fibrosis area, in NASH mice; assay type: in vivo
Source text: as §1, §2, §3
For quantitative analysis of fibrosis areas, bright field images of
Sirius red-stained sections were captured using a digital camera (DFC280, Leica, Germany) around central veins at 200-fold magnification, and the positive areas in 5 fields/section were quantified using ImageJ software (National Institute of Health, USA).

Collagen Type 1 mRNA = assay: Quantitative RT-PCR of liver, Collagen Type 1 mRNA; assay type: in vivo, mice
Procedure: (§5) The animals, groups, treatment conditions and time points are the same as for Example 3 above. Livers were harvested from the animals in Example 3 and subjected to the following analysis.
(§6) Total RNA was extracted from liver samples using RNAiso (Takara Bio, Japan) according to the manufacturer's instructions. One μg of RNA was reverse-transcribed using a reaction mixture containing 4.5 mM MgCl2 (Roche, Switzerland), 40 U RNase inhibitor (Toyobo, Japan), 0.5 mM dNTP (Promega, USA), 6.28 μM random hexamer (Promega), 5× first strand buffer (Promega), 6.6 mM dithiothreitol (Invitrogen, USA) and MMLV-RT (Invitrogen) in a final volume of 20 μL. The reaction was carried out for 1 hour at 37° C., followed by 5 minutes at 99° C. Real-time PCR was performed using real-time PCR DICE and SYBR premix Taq (Takara Bio). To calculate the relative mRNA expression level, the expression of each gene was normalized to that of reference gene 36B4 (gene symbol: Rp1p0). Statistical analyses were performed using Bonferroni Multiple Comparison Test on Prism Software 4. P values <0.05 were considered statistically significant. The expression level of Collagen Type I, collagen type 3, α-SMA, TGF-β, CCR2, and TIMP-1 mRNA were assessed.

Collagen Type 3 mRNA = assay: Quantitative RT-PCR of liver, Collagen Type 3 mRNA; assay type: in vivo, mice
Procedure: as §5, §6

α-SMA mRNA = assay: Quantitative RT-PCR of liver, α-SMA mRNA; assay type: in vivo, mice
Procedure: as §5, §6

TGF-β mRNA = assay: Quantitative RT-PCR of liver, TGF-β mRNA; assay type: in vivo, mice
Procedure: as §5, §6

CCR2 mRNA = assay: Quantitative RT-PCR of liver, CCR2 mRNA; assay type: in vivo, mice
Procedure: as §5, §6

TIMP-1 mRNA = assay: Quantitative RT-PCR of liver, TIMP-1 mRNA; assay type: in vivo, mice
Procedure: as §5, §6

NASH mice [5] = assay: Liver weight, NAS and inflammatory cell infiltration in NASH mice (summary statements); assay type: in vivo
Source text: as §1, §2
Vehicle (saline) and TXA127 were administered via subcutaneous administration to the mice in a volume of 5 mL/kg body weight. Telmisartan was administered by oral route to the mice in a volume of 10 mL/kg body weight. TXA127 was dissolved in saline, and Telmisartan (MICARDIS®) was purchased from Boehringer Ingelheim GmbH and was dissolved in pure water. TXA127 was administered once daily at the doses of 30, 100, 300 or 1000 μg/kg body weight. […]

[6] = 15 mg/kg oral QD, 8-10 wks of age
[7] = relative to 36B4, Normal = 1.00, 15 mg/kg oral QD
[8] = 15 mg/kg oral QD, compared with the Vehicle group
[9] = 30 μg/kg SQ QD, 7-10 wks of age
[10] = 100 μg/kg SQ QD, 7-10 wks of age
[11] = 300 μg/kg SQ QD, 7-10 wks of age
[12] = 1000 μg/kg SQ QD, 7-10 wks of age
[13] = relative to 36B4, Normal = 1.00, 30 μg/kg SQ QD
[14] = relative to 36B4, Normal = 1.00, 100 μg/kg SQ QD
[15] = relative to 36B4, Normal = 1.00, 300 μg/kg SQ QD
[16] = relative to 36B4, Normal = 1.00, 1000 μg/kg SQ QD

Molecule: CCCc1nc2c(C)cc(-c3nc4ccccc4n3C)cc2n1Cc1ccc(-c2ccccc2C(=O)O)cc1 [Telmisartan, reference compound]
- non-fasting blood glucose levels in whole blood ([1]; 15 mg/kg oral QD, 8-10 wks of age, detection limit 900 mg/dL): 900 ± 0 mg/dL
- plasma ALP levels [2, 6]: 605±130 U/L
- plasma ALT levels [2, 6]: 41±10 U/L
- plasma AST levels [2, 6]: 232±141 U/L
- liver hydroxyproline content (NASH mice [3]; [6]): 1.46 ± 0.69 µg/mg
- percentage of fibrosis area (Sirius red-positive area) (NASH mice [4]; [6]): 0.44±0.12%
- Collagen Type 1 mRNA expression levels (Collagen Type 1 mRNA; [7]): 3.14±0.59
- Collagen Type 3 mRNA expression levels (Collagen Type 3 mRNA; [7]): 2.09±0.50
- α-SMA mRNA expression levels (α-SMA mRNA; [7]): 2.07±0.87
- TGF-β mRNA expression levels (TGF-β mRNA; [7]): 1.58±0.23
- CCR2 mRNA expression levels (CCR2 mRNA; [7]): 1.94±0.37
- TIMP-1 mRNA expression levels (TIMP-1 mRNA; [7]): 4.22±1.52
- NAS (NASH mice [5]; [8]): significantly decreased
- liver weight (NASH mice [5]; [8]): significantly decreased

Molecule: TXA127: test substance dissolved in saline, given subcutaneously; not defined in the text, apparently the angiotensin-(1-7) peptide (DRVYIHP; Angiotensin 1-7; UniProt P01019 25-31, looked up)
- non-fasting blood glucose levels in whole blood [1, 9]: 675 ± 103 mg/dL
- non-fasting blood glucose levels in whole blood [1, 10]: 590 ± 131 mg/dL
- non-fasting blood glucose levels in whole blood [1, 11]: 639 ± 76 mg/dL
- non-fasting blood glucose levels in whole blood [1, 12]: 632 ± 92 mg/dL
- plasma ALP levels [2, 9]: 428±61 U/L
- plasma ALT levels [2, 9]: 46±15 U/L
- plasma AST levels [2, 9]: 160±94 U/L
- plasma ALP levels [2, 10]: 358±75 U/L
- plasma ALT levels [2, 10]: 89±56 U/L
- plasma AST levels [2, 10]: 352±174 U/L
- plasma ALP levels [2, 11]: 472±100 U/L
- plasma ALT levels [2, 11]: 43±17 U/L
- plasma AST levels [2, 11]: 149±50 U/L
- plasma ALP levels [2, 12]: 397±96 U/L
- plasma ALT levels [2, 12]: 41±10 U/L
- plasma AST levels [2, 12]: 142±32 U/L
- liver hydroxyproline content (NASH mice [3]; [9]): 1.22 ± 0.29 µg/mg
- liver hydroxyproline content (NASH mice [3]; [10]): 0.88 ± 0.17 µg/mg
- liver hydroxyproline content (NASH mice [3]; [11]): 1.24 ± 0.51 µg/mg
- liver hydroxyproline content (NASH mice [3]; [12]): 1.34 ± 0.69 µg/mg
- percentage of fibrosis area (Sirius red-positive area) (NASH mice [4]; [9]): 0.88±0.33%
- percentage of fibrosis area (Sirius red-positive area) (NASH mice [4]; [10]): 0.55±0.29%
- percentage of fibrosis area (Sirius red-positive area) (NASH mice [4]; [11]): 0.54±0.18%
- percentage of fibrosis area (Sirius red-positive area) (NASH mice [4]; [12]): 0.51±0.09%
- Collagen Type 1 mRNA expression levels (Collagen Type 1 mRNA; [13]): 4.48±0.91
- Collagen Type 1 mRNA expression levels (Collagen Type 1 mRNA; [14]): 3.37±1.58
- Collagen Type 1 mRNA expression levels (Collagen Type 1 mRNA; [15]): 3.06±1.12
- Collagen Type 1 mRNA expression levels (Collagen Type 1 mRNA; [16]): 2.77±0.77
- Collagen Type 3 mRNA expression levels (Collagen Type 3 mRNA; [13]): 3.23±0.54
- Collagen Type 3 mRNA expression levels (Collagen Type 3 mRNA; [14]): 2.82±1.50
- Collagen Type 3 mRNA expression levels (Collagen Type 3 mRNA; [15]): 2.81±0.89
- Collagen Type 3 mRNA expression levels (Collagen Type 3 mRNA; [16]): 2.24±0.68
- α-SMA mRNA expression levels (α-SMA mRNA; [13]): 2.88±1.08
- α-SMA mRNA expression levels (α-SMA mRNA; [14]): 2.65±2.46
- α-SMA mRNA expression levels (α-SMA mRNA; [15]): 2.49±0.98
- α-SMA mRNA expression levels (α-SMA mRNA; [16]): 1.92±0.67
- TGF-β mRNA expression levels (TGF-β mRNA; [13]): 2.35±0.44
- TGF-β mRNA expression levels (TGF-β mRNA; [14]): 1.93±0.44
- TGF-β mRNA expression levels (TGF-β mRNA; [15]): 1.69±0.49
- TGF-β mRNA expression levels (TGF-β mRNA; [16]): 1.70±0.35
- CCR2 mRNA expression levels (CCR2 mRNA; [13]): 2.60±0.60
- CCR2 mRNA expression levels (CCR2 mRNA; [14]): 3.26±2.01
- CCR2 mRNA expression levels (CCR2 mRNA; [15]): 2.82±0.88
- CCR2 mRNA expression levels (CCR2 mRNA; [16]): 3.10±1.55
- TIMP-1 mRNA expression levels (TIMP-1 mRNA; [13]): 6.74±1.93
- TIMP-1 mRNA expression levels (TIMP-1 mRNA; [14]): 9.80±8.93
- TIMP-1 mRNA expression levels (TIMP-1 mRNA; [15]): 7.54±3.05
- TIMP-1 mRNA expression levels (TIMP-1 mRNA; [16]): 8.54±6.41
- inflammatory cell infiltration (NASH mice [5]; all doses (30, 100, 300, 1000 μg/kg SQ QD)): decreased inflammatory cell infiltration
